Measured values as given in patent publication US9169268B2, “Use of 7-alkoxy fangchinoline compounds in preventing, alleviating and/or treating depression” (Peking University, priority 2012, dated 2015).

What was measured:
[1] = test system: chronic unpredictable stress (CUS) model in rats; test: Autonomous movement in CUS model in rats; assay type: in vivo; settings: 7 days
Description: (§1) The chronic unpredictable stress model is usually used as a depression model. The experimental method is as follows. Stimulation includes forced swimming (10° C., 6 min), tail clamping (1 cm from the tail tip, 1 min), water deprivation (24 h), fasting (24 h), isolated housing (24 h), tail suspension (1 h), immobility (2 h), high-speed horizontal oscillation (120 times/min, 1 h), foot shock for 45 minutes (mean 1 mA, time course 1 s, once/min). These stressors were randomly scheduled over a one-week period and repeated throughout the 23-day experiment. The non-stress control group was housed under normal conditions. Time: between 9:00 a.m. and 2:00 p.m. Since Day 15, the animals in each group were daily intragastrically administered with the subject medicament and double distilled water based on body weight (blank group and CUS model group) respectively, 60 minutes before the stress. […] Behavior and sleep electroencephalogram analyses were carried out on Day 22-23 of the stress. On Day 21, 60 minutes after the final administration, a sucrose solution intake test was carried out and sleep electroencephalogram was recorded simultaneously. On Day 22, EPM and forced swimming tests were carried out.

[2] = test system: GSK-3β phosphorylation level; test: GSK-3β phosphorylation level in mouse brain regions (Western blot); assay type: in vivo; settings: mice
Description: ICR mice were intragastrically administered of subject medicaments and vehicle. One hour later, brains of those treated mice were obtained after decapitation. Prefrontal lobe cortex, hipocampus, corpus striatum and hypothalamus were isolated and collected respectively. Then protein electrophoresis (Western blot) was carried out with each sample.

[3] = test system: chronic unpredictable stress (CUS) model in rats; test: Sucrose solution preference in CUS model in rats; assay type: in vivo; settings: 7 days
Description: as §1

[4] = test system: chronic unpredictable stress (CUS) model in rats; test: Sleep electroencephalogram in CUS depression model in rats; assay type: in vivo
Description: The chronic unpredictable stress model is usually used as a depression model. The experimental method is as follows. Stimulation includes forced swimming (10° C., 6 min), tail clamping (1 cm from the tail tip, 1 min), water deprivation (24 h), fasting (24 h), isolated housing (24 h), tail suspension (1 h), immobility (2 h), high-speed horizontal oscillation (120 times/min, 1 h), foot shock for 45 minutes (mean 1 mA, time course 1 s, once/min). These stressors were randomly scheduled over a one-week period and repeated throughout the 23-day experiment. The non-stress control group was housed under normal conditions. Time: between 9:00 a.m. and 2:00 p.m. Since Day 15, the animals in each group were daily intragastrically administered with the subject medicament and double distilled water based on body weight (blank group and CUS model group) respectively, 60 minutes before the stress. Imipramine (intraperitoneally, IP) was adopted as a positive control. Behavior and sleep electroencephalogram analyses were carried out on Day 22-23 of the stress. On Day 21, 60 minutes after the final administration, a sucrose solution intake test was carried out and sleep electroencephalogram was recorded simultaneously. On Day 22, EPM and forced swimming tests were carried out.
Result 3: Sleep disturbance is one of the most common symptoms of neuropsychiatry. From a view of therapeutics, sleep disturbance is one of the most distressful events in patients suffered from nervous diseases and mental illness, especially in depression, and also one of major adverse events that may exacerbate the conditions of nervous disease and mental illness and impede the recovery in patients. For example, patients who are suffering from depression associated with insomnia may have an apparently higher incidence of a suicidal behavior, as compared with a non-insomnia group. Sleep disturbance in nervous and mental diseases can be simulated by using a CUS model in rats. […] Therefore, YH-200 could be useful for treating and ameliorating sleep disturbance in a patient suffering from depression (see, Table 4).

GSK-3β = GSK-3β (Homo sapiens, UniProt P49841); test: GSK-3β activity assay (Z′-LYTE); assay type: biochemical; settings: n = 3; read-out: Mean EC50 in the inhibition of GSK-3β activity
Description: The GSK-3β phosphorylation level was determined by using a Z′-LYTE assay (Life Technologies). The assay was performed in a 384-well plate. The wells of the testing plate were divided into blank control wells (without the enzyme), enzyme control wells (without the testing substance), and testing wells (with the enzyme and the testing substance at various concentrations). The inhibition rate of the testing substance is expressed as: inhibition %=(E−S)/(E−B)×100, wherein E is the average emission ratio of enzyme control wells; B is the average emission ratio of blank control wells; S is the emission ratio of the testing sample wells. The median effective concentration of each compound (EC50 μM) was calculated by using the resultant inhibition rate of each sample at various concentrations.

[5] = Serum AST and ALT in mice after 14 days of intragastric administration; assay type: in vivo; settings: mouse, in vivo, 60 mg/kg/day
Description: Blood was collected from epicanthal, stood at room temperature for about 2 hours, and centrifuged for 12 minutes at 3000 r/min after coagulation. The serum was removed and centrifuged again. Alanine transaminase (ALT) and aspartate transaminase (AST) levels were determined

[6] = test system: chronic unpredictable stress (CUS) model in rats; test: Elevated plus-maze (EPM) anxiety test in CUS model in rats; assay type: in vivo
Description: as §1

[7] = test system: forced swimming model in mice; test: Forced swimming model in mice; assay type: in vivo
Description: A desperate behavior status of human beings may be simulated by an immobility status in a forced swimming model in mice. The mice were put into a cylindrical glass jar (height 20 cm, diameter 10 cm) with a water depth of 15 cm and water temperature of 25±1° C. The mice were allowed to pre-swim for 15 minutes before the experiment, and then were taken out, wiped dry at a warm place, and sent back into cages. In 24 hours, the mice received an intragastric administration; and 60 minutes after the administration, the mice were put into the above-mentioned environment. The accumulative immobility time of the mice in the jar during the 5-minute period of time after six minutes of swimming was measured. A decrease in immobility time was taken as evaluation index.

[8] = Day 0 (baseline, before dosing)

Sequence of GSK-3β (P49841 whole entry): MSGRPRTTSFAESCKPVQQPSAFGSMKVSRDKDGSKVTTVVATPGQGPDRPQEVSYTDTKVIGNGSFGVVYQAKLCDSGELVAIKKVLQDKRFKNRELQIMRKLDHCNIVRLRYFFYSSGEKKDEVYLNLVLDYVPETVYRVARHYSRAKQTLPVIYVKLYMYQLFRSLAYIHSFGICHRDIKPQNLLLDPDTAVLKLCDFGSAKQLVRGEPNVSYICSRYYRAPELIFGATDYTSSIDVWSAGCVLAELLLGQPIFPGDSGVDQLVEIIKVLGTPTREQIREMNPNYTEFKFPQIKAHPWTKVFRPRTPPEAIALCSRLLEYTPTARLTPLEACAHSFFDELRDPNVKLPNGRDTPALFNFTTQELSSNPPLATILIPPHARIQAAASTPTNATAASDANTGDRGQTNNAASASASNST

melting point: 109.5 to 111 °C | EC50 (GSK-3β): 860 nM
Structure (SMILES): CCOc1c(OC)cc2c3c1Oc1cc4c(cc1OC)CCN(C)C4Cc1ccc(cc1)Oc1cc(ccc1OC)CC3N(C)CC2 (stereo not shown) [Compound 3, 7-ethoxy fangchinoline]
Autonomous movement Distance ([1]; 7.5 mg/kg intragastric daily): 13612.65 ± 792.22^##,$$ mm | Autonomous movement Speed ([1]; 7.5 mg/kg intragastric daily): 45.38 ± 2.64^##,$$ mm/second | Autonomous movement Distance ([1]; 15 mg/kg intragastric daily): 14409.83 ± 664.54^##,$$ mm | Autonomous movement Speed ([1]; 15 mg/kg intragastric daily): 48.03 ± 4.02^##,$$ mm/second | Autonomous movement Distance ([1]; 30 mg/kg intragastric daily): 14636.14 ± 812.31^##,$$ mm | Autonomous movement Speed ([1]; 30 mg/kg intragastric daily): 48.78 ± 5.36^##,$$ mm/second | p-GSK-3β level ([2]; 30 mg/kg intragastric, 1 h, hypothalamus, versus blank control): evidently increased | influence on phosphorylated GSK-3β (p-GSK-3β) and total-GSK-3β ([2]; 30 mg/kg intragastric, 1 h, prefrontal lobe cortex, hipocampus and corpus striatum): no evident influence | total GSK-3β level ([2]; 60 mg/kg intragastric, 1 h, four brain sections): no influence | p-GSK-3β level ([2]; 60 mg/kg intragastric, 1 h, prefrontal lobe cortex, hipocampus, corpus striatum and hypothalamus): significantly increased | enhancement of GSK-3β phosphorylation level with pMPPI given intraperitoneally 15 minutes before ([2]; FIG. 3, prefrontal lobe cortex, hipocampus, corpus striatum and hypothalamus, n=6): could evidently inhibit | enhancement of GSK-3β phosphorylation level with 5-HT2A receptor agonist DOI ([2]; FIG. 5, prefrontal lobe cortex, hipocampus, corpus striatum and hypothalamus, n=6): inhibited | Sucrose solution preference ([3]; 7.5 mg/kg intragastric daily): 82.3 ± 3.3^##,$$ % | Sucrose solution preference ([3]; 15 mg/kg intragastric daily): 93.6 ± 4.6^##,$$ % | Sucrose solution preference ([3]; 30 mg/kg intragastric daily): 98.1 ± 3.7^##,$$ % | effect on the sleep disturbance ([4]; 30 mg/kg p.o.): evident amelioration effect | Deep sleep (SWS) Time [4, 8]: 39.31 ± 10.22 min | NREM sleep Time [4, 8]: 174.44 ± 8.35 min | Rapid eye movement (REM) sleep Time [4, 8]: 37.95 ± 6.28 min | Total sleep Time [4, 8]: 212.40 ± 12.65 min | Deep sleep (SWS) Time ([4]; Day 21, 30 mg/kg p.o.): 48.18 ± 13.77 min | NREM sleep Time ([4]; Day 21, 30 mg/kg p.o.): 165.27 ± 7.97 min | Rapid eye movement (REM) sleep Time ([4]; Day 21, 30 mg/kg p.o.): 34.06 ± 1.75 min | Total sleep Time ([4]; Day 21, 30 mg/kg p.o.): 199.33 ± 9.11 min | ALT [5]: 82.1 ± 16.4 U/L | AST [5]: 102.3 ± 14.5 U/L | AST/ALT [5]: 1.25 ± 0.18 | Percentage of entries into open arms relative to total entries into arms ([6]; 7.5 mg/kg intragastric daily): 57.2 ± 1.8^##,$$ % | Percentage of residence time in open arms ([6]; 7.5 mg/kg intragastric daily): 69.1 ± 2.4^##,$$ % | Percentage of entries into open arms relative to total entries into arms ([6]; 15 mg/kg intragastric daily): 59.7 ± 2.2^##,$$ % | Percentage of residence time in open arms ([6]; 15 mg/kg intragastric daily): 72.3 ± 3.6^##,$$ % | Percentage of entries into open arms relative to total entries into arms ([6]; 30 mg/kg intragastric daily): 60.2 ± 2.0^##,$$ % | Percentage of residence time in open arms ([6]; 30 mg/kg intragastric daily): 71.8 ± 3.2^##,$$ % | anti-depression effect with 5-HT1A receptor antagonist pMPPI ([7]; FIG. 2, n=12-15): could be inhibited | reduction of immobility time and extension of immobility latency period with 5-HT2A receptor agonist DOI ([7]; FIG. 4, n=12-15): could be inhibited
